The source of these data is patent publication US12564605B2, “Plant based compositions and methods for the delivery of magnesium” (Standard Process, Inc., priority 2018, dated 2026).

The assay relates to recognition learning and memory retrieval. Nature of the assay: Novel Object Recognition (NOR) test. The class given is in vivo, Sprague Dawley rats. The settings on record: rats on low Mg diet; in comparison to Magtein and placebo control; FIG. 7. The text has this:
Male Sprague Dawley rats (150-175 grams on arrival) from Envigo (Indianapolis, IN) were used in the study. Upon receipt, rats were assigned unique identification numbers and were group housed with 2-3 rats per cage in ventilated cages with micro-isolator filter tops. All rats were examined and weighed prior to initiation of the study to assure adequate health and suitability. During the course of the study, 12/12 light/dark cycles will be maintained. The room temperature will be maintained between 20° C. and 23° C. with a relative humidity maintained around 50%.
On the day of arrival to the research facility, animals (except for the normal Mg diet group, N=15) were placed on LabDiet 5008, a diet that is deficient in Mg containing 0.20% magnesium. […]
The Novel Object Recognition (NOR) is a test of recognition learning and memory retrieval, which takes advantage of the spontaneous preference of rodents to investigate a novel object compared to a familiar one. […] All training and testing trials were video-taped and scored by an observer blind to treatments.
On days 1 and 2, rats were allowed to freely explore the arena (no objects inside) for a 5-minute habituation period. […] One hour later, the rats were again placed into the test arena in the presence of one familiar object and one novel object (Object A and Object B), and the time spent exploring both objects is recorded. […]

On to `O=C([O-])CC(O)(CC(=O)[O-])C(=O)[O-].O=C([O-])CC(O)(CC(=O)[O-])C(=O)[O-].[Mg+2].[Mg+2].[Mg+2]` [Mg citrate], for which the “Cognitive function (Novel Object Recognition test, Recognition Index)” value is reported as “trend toward improvement in cognitive function”.
